Data as given in article PMC12010950, “Discover the Power of Lithospermic Acid as Human Carbonic Anhydrase VA and Pancreatic Lipase Inhibitor Through In Silico and In Vitro Studies” (Archiv Der Pharmazie, 2025).
Several values for one entry are separate records, joined by “and”; a condition that tells them apart may be missing. Equal entries are not always repeated. Entries after “also recorded” stand apart in the source; their conditions may differ. Where two headings read alike, the source gives them in different places.

How the values were obtained:
hCA IX = molecular target: T1, hCA IX (Homo sapiens, UniProt Q16790); format: biochemical; details: read-out: K i hCA IX
T1 construct: made in house
Description: (§1) An Applied Photophysics stopped‐flow instrument was used to assay the CA‐catalyzed CO2 hydration activity. […] The uncatalyzed rates were determined in the same manner and subtracted from the total observed rates. Stock solutions of the inhibitor (0.1 mM) were prepared in distilled−deionized water, and dilutions up to 0.01 nM were done thereafter with the assay buffer. Inhibitor and enzyme solutions were preincubated together for 15 min at room temperature before the assay, to allow for the formation of the E − I complex. The inhibition constants were obtained by nonlinear least‐squares methods using PRISM 3 and the Cheng–Prusoff equation as reported earlier and represent the mean from at least three different determinations. All CA isoforms were recombinant proteins obtained in house, as reported earlier.

hCA VB = assay: Stopped-flow CO2 hydrase assay; format: biochemical, human; details: K i VA / K i VB
Description: as §1

[1] = molecular target: T2, PL (pancreatic lipase) from porcine pancreas (Sus scrofa, UniProt P00591); assay: Pancreatic lipase inhibition, spectrophotometric p-nitrophenyl butyrate assay; details: IC50 (µM) ± SD, p-nitrophenyl butyrate substrate, 37°C
T2 sequence (P00591 1-450): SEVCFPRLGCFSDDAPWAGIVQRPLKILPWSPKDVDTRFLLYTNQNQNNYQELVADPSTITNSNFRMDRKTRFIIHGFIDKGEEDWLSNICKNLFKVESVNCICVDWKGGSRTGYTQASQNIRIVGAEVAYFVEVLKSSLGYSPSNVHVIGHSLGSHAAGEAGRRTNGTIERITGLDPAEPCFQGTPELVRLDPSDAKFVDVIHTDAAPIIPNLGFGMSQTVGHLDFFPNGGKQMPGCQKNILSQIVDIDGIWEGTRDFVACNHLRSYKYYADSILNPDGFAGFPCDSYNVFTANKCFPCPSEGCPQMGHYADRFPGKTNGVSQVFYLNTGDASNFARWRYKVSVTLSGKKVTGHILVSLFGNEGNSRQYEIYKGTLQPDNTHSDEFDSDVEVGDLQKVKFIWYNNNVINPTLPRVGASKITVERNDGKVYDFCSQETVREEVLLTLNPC
Description: The inhibition of PL (from porcine pancreas; see Supporting Information) was assessed using previously described spectrophotometric methods [15, 16, 30]. […] Thus, a lower value indicates higher inhibitory activity.
The reactions were incubated at 37°C for 10 min. Then, the substrate p‐nitrophenyl butyrate (3.2 mM in H2O/DMF 70:30, 10 μL) was pipetted, and the microplate was incubated at 37°C for 30 min under moderate shaking.

hCA VII = molecular target: T3, hCA VII (Homo sapiens, UniProt Q9Y2D0); assay: Stopped-flow CO2 hydrase assay (supplement table column); format: biochemical
T3 construct: made in house
T3 sequence (Q9Y2D0 34-317): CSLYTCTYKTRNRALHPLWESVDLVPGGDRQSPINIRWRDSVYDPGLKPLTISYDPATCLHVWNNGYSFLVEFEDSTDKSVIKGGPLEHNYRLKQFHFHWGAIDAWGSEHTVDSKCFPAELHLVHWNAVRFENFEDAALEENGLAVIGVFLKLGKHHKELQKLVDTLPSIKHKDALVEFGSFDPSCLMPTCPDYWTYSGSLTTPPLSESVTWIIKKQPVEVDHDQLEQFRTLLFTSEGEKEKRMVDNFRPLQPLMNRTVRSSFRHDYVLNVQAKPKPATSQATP
Description: An Applied Photophysics stopped‐flow instrument was used to assay the CA‐catalyzed CO2 hydration activity. Phenol red (at a concentration of 0.2 mM) was used as an indicator, working at the absorbance maximum of 557 nm, with 20 mM Hepes (pH 7.4) as a buffer, and 20 mM Na2SO4 (to maintain constant ionic strength), following the initial rates of the CA‐catalyzed CO2 hydration reaction for a period of 10 − 100 s. The CO2 concentrations ranged from 1.7 to 17 mM for the determination of the kinetic parameters and inhibition constants. Enzyme concentrations ranged between 5 and 12 nM. For each inhibitor, at least six traces of the initial 5%−10% of the reaction were used to determine the initial velocity. The uncatalyzed rates were determined in the same manner and subtracted from the total observed rates. Stock solutions of the inhibitor (0.1 mM) were prepared in distilled−deionized water, and dilutions up to 0.01 nM were done thereafter with the assay buffer. Inhibitor and enzyme solutions were preincubated together for 15 min at room temperature before the assay, to allow for the formation of the E − I complex. The inhibition constants were obtained by nonlinear least‐squares methods using PRISM 3 and the Cheng–Prusoff equation as reported earlier and represent the mean from at least three different determinations. […]

[2] = molecular target: T2, PL (pancreatic lipase) from porcine pancreas; assay: Kinetics of PL inhibition (Lineweaver-Burk plots); format: biochemical
Description: The inhibition of PL by LTS0059529 on PL was also determined using Lineweaver–Burk graphs, which plot the reciprocal of initial velocity (v 0 ) against the reciprocal of substrate concentration.
The mode of inhibition of PL in the presence of LTS0059529 was determined by elaboration of UV‐vis spectroscopic data with Lineweaver–Burk plots. […] The competitive inhibition constants K i was calculated from the following equation. (2) v0=vmaxS/Km1+I/Ki+S, where ν 0 is the initial velocity in the absence and presence of the inhibitor, S and I are the concentrations of substrate and inhibitor, respectively; ν max is the maximum velocity, K m is the Michaelis–Menten constant. The replot of slopes (K m/ν max) from Lineweaver–Burk plot versus the inhibitor concentration afforded K i value as well.

hCA I = molecular target: T4, hCA I (Homo sapiens, UniProt P00915); assay: Stopped-flow CO2 hydrase assay; format: biochemical; details: mean from 3 assays, read-out: K i hCA I
T4 construct: made in house
T4 sequence (P00915 whole entry): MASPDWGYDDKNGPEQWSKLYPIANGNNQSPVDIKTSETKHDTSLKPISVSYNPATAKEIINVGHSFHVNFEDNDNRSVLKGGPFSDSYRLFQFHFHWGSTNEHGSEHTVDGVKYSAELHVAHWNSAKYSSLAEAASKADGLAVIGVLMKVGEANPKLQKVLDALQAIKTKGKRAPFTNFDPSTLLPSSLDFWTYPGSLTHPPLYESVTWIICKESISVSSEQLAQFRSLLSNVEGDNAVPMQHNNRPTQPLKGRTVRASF
Description: as §1

hCA XII = molecular target: T5, hCA XII (Homo sapiens, UniProt O43570); assay: Stopped-flow CO2 hydrase assay; format: biochemical; details: mean from 3 assays, read-out: K i hCA XII
T5 construct: made in house
T5 sequence (O43570 25-354): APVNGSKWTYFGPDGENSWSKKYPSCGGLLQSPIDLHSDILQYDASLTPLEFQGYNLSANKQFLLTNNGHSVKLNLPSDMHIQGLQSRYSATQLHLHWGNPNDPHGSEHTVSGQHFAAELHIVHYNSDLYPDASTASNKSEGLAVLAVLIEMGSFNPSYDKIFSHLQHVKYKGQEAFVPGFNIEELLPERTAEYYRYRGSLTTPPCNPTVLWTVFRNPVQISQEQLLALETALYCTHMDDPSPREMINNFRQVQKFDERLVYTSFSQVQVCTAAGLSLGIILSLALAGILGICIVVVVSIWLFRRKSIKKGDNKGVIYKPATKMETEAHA
Description: as §1

hCA II = molecular target: T6, hCA II (Homo sapiens, UniProt P00918); assay: Stopped-flow CO2 hydrase assay; format: biochemical; details: mean from 3 assays, read-out: K i hCA II
T6 construct: made in house
Description: as §1

hCA VA = molecular target: T7, hCA VA (Homo sapiens, UniProt P35218); assay: Stopped-flow CO2 hydrase assay; format: biochemical; details: mean from 3 assays, read-out: K i hCA VA
T7 construct: made in house
T7 sequence (P35218 39-305): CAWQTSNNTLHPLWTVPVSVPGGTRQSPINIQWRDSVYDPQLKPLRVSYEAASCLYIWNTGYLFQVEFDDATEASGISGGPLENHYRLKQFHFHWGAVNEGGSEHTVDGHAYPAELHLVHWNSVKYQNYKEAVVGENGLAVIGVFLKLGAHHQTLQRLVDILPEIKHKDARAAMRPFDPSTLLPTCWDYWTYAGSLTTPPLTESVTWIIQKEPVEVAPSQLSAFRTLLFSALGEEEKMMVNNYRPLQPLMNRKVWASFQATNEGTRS
Description: as §1

[3] = molecular target: T2, PL (pancreatic lipase) from porcine pancreas; details: cited from earlier work

| Compound | Ki (hCA IX) | Inhibition ratio hCA VA versus hCA VB (VB more potently inhibited) (hCA VB) | IC50 [1] | Ki (hCA VII) | Inhibition mode ([2]; Lineweaver-Burk plot) | Ki ([2]; from slope of L-B plot lines versus inhibitor concentration) | v max of the reaction ([2]; not affected by the competitive inhibitor) | Ki (hCA I) | Ki (hCA XII) | Ki (hCA II) | Ki (hCA VA) | Inhibition mode [3] |
| --- | --- | --- | --- | --- | --- | --- | --- | --- | --- | --- | --- | --- |
| O=C(/C=C/c1ccc(O)c2c1[C@H](C(=O)O)[C@@H](c1ccc(O)c(O)c1)O2)O[C@H](Cc1ccc(O)c(O)c1)C(=O)O [LTS0059529, Lithospermic acid] | 0.31 ± 0.01 µM | 1.15 fold | 5.4 µM and 5.45 µM | 0.6 ± 0.02 µM | competitively; also recorded: Competitive | 33.1 ± 1.6 µM | 0.091 ± 0.002 mM/min | > 100 µM | 0.0048 ± 0.003 µM | > 100 µM | 0.69 ± 0.01 µM |  |
| CCCCCCCCCCC[C@@H](C[C@@H]1OC(=O)[C@H]1CCCCCC)OC(=O)[C@H](CC(C)C)NC=O [ORL, Orlistat] |  |  |  |  |  |  |  |  |  |  |  | Competitive |
